Reference: patent US20230271954A1 (Gossamer Bio Services, Inc., priority 2020, published 2023)

Experiments:
DGKα = DGKα (Homo sapiens, UniProt P23743); experiment: DGKα biochemical assay (ADP-Glo); details: read-out: DGK α IC50
Outline: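 ADP-Glo kinase assay using OAG/PS (1:2) lipid substrate, sonicated, in HEPES pH 7.0 buffer with MgCl2, CaCl2, DTT, BSA, Triton X-100. Enzyme preincubated with compound 30 min at RT; substrate with ATP (DGKα: 400 μM) added, 45 min RT. Luminescence read; % inhibition vs DMSO and no-enzyme controls.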

DGKζ = molecular target: T1, DGKζ (Homo sapiens, UniProt Q13574); experiment: DGKζ biochemical assay (ADP-Glo); details: read-out: DGK ζ IC50
T1 construct: purchased Carna 12-110
T1 sequence (Q13574 1-929 isoform Q13574-4): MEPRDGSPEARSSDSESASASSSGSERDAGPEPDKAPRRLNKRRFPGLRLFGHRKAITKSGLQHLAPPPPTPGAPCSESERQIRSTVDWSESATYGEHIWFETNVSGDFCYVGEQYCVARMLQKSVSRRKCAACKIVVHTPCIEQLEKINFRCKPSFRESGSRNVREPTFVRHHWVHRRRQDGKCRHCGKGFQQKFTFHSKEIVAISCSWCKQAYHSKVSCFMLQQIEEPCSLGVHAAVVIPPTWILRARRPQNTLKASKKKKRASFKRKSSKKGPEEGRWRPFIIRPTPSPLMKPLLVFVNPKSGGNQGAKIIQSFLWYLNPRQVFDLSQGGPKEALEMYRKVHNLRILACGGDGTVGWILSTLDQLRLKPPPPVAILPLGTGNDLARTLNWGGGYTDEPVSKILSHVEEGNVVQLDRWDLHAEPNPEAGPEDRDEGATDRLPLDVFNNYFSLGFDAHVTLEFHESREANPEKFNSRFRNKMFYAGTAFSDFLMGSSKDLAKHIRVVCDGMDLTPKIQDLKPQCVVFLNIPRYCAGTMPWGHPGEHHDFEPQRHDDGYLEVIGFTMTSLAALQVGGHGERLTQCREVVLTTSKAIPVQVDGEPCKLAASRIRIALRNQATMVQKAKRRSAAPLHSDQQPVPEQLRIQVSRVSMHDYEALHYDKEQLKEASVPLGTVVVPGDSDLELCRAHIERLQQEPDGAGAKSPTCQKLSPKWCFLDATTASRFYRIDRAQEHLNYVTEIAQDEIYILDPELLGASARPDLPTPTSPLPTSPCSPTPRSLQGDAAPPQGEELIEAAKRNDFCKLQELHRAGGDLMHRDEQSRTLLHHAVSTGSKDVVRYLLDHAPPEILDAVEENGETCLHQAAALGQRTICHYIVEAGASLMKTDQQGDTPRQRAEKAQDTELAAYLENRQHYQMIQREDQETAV

DGKα, sequence (P23743 whole entry): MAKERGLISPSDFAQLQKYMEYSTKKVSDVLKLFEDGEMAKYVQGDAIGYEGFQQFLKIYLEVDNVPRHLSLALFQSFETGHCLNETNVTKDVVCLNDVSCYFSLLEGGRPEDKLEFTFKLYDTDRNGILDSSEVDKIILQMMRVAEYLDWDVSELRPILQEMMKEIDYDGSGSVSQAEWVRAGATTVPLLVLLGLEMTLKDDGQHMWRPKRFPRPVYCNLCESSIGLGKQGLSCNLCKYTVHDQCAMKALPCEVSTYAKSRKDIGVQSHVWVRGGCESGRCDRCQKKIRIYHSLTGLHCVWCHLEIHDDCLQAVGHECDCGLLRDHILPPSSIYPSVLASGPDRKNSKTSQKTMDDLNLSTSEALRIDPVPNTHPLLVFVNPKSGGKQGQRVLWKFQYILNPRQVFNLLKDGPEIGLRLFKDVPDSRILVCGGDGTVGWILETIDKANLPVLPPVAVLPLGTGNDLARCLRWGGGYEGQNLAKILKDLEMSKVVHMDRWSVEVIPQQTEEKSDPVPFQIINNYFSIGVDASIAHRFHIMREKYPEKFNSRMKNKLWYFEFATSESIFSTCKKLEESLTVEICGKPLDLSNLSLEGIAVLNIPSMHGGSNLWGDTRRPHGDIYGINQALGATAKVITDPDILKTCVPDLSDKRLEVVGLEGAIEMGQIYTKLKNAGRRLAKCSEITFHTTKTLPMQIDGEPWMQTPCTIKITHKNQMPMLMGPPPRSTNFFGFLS

Row | SMILES | IC50 (DGKα) [µM] | IC50 (DGKζ) [µM]
1 | Cc1cc(F)ccc1N(C[C@@H]1CCCO1)[C@H]1CC[C@H](N(C)c2c(C#N)c(=O)n(C)c3ccc(C#N)nc23)CC1 [Example 168, trans-8-((-4-((4-fluoro-2-methylphenyl)(((S)-tetrahydrofuran-2-yl)methyl)amino)cyclohexyl) (methyl)amino)-5-methyl-6-oxo-5,6-dihydro-1,5-naphthyridine-2,7-dicarbonitrile] | ≥ 1 | 0.1 to 1
2 | COc1cc(F)ccc1N(C1CC1)[C@H]1CC[C@@H](N(C)c2c(C#N)c(=O)n(C)c3ccc(Cl)nc23)CC1 [Example 3H, cis-6-chloro-4-((4-(cyclopropyl(4-fluoro-2-methoxyphenyl)amino)cyclohexyl)(methyl)amino)-1-methyl-2-oxo-1,2-dihydro-1,5-naphthyridine-3-carbonitrile] | 0.1 to 1 | 0.01 to 0.1
3 | CC(C)C(=O)N(c1ccc(F)cc1)[C@H]1CC[C@@H](N(C)c2c(C#N)c(=O)n(C)c3ccc(C#N)nc23)CC1 [Example 209, cis-N-(4-((3,6-dicyano-1-methyl-2-oxo-1,2-dihydro-1,5-naphthyridin-4-yl)(methyl)amino)cyclohexyl)-N-(4-fluorophenyl)isobutyramide] | 0.1 to 1 | ≥ 1
4 | COc1cc(F)ccc1N(CC1CC1)[C@H]1CC[C@@H](N(C)c2c(C#N)c(=O)n(C)c3cccnc23)CC1 [Example 9, cis-4-((4-((cyclopropylmethyl)(4-fluoro-2-methoxyphenyl)amino)cyclohexyl)(methyl)amino)-1-methyl-2-oxo-1,2-dihydro-1,5-naphthyridine-3-carbonitrile] | ≥ 1 | ≥ 1
5 | Cc1c(F)cccc1N(CC1CC1)[C@H]1CC[C@H](N(C)c2c(C#N)c(=O)n(C)c3ccc(Cl)nc23)CC1 [Example 105, trans-6-chloro-4-((4-((cyclopropylmethyl)(3-fluoro-2-methylphenyl)amino)cyclohexyl)(methyl)amino)-1-methyl-2-oxo-1,2-dihydro-1,5-naphthyridine-3-carbonitrile] | ≥ 1 | 0.1 to 1
6 | Cn1c(=O)c(C#N)c(N(C)[C@H]2CC[C@H](N(CC3CC3)c3cccc(F)c3)CC2)c2nc(C#N)ccc21 [Example 27, trans-8-((4-((cyclopropylmethyl)(3-fluorophenyl)amino)cyclohexyl)(methyl)amino)-5-methyl-6-oxo-5,6-dihydro-1,5-naphthyridine-2,7-dicarbonitrile] | 0.1 to 1 | 0.1 to 1
7 | Cc1cc(F)ccc1N(CC1CCOC1)[C@H]1CC[C@@H](N(C)c2cc(=O)n(C)c3ccc(C#N)nc23)CC1 (stereo partly drawn) [Example 164, cis-8-((-4-((4-fluoro-2-methylphenyl) ((tetrahydrofuran-3-yl)methyl)amino)cyclohexyl) (methyl)amino)-5-methyl-6-oxo-5,6-dihydro-1,5-naphthyridine-2-carbonitrile] | 0.1 to 1 | 0.1 to 1
8 | Cc1cc2c(cc1N(CC1CCC1)[C@H]1CC[C@H](N(C)c3c(C#N)c(=O)n(C)c4ccc(C#N)nc34)CC1)OCO2 [Example 146, trans-8-((4-((cyclobutylmethyl)(6-methylbenzo[d] [1,3]dioxol-5-yl)amino)cyclohexyl)(methyl)amino)-5-methyl-6-oxo-5,6-dihydro-1,5-naphthyridine-2,7-dicarbonitrile] | 0.1 to 1 | 0.1 to 1
9 | Cc1cc(F)ccc1N(C[C@H]1CCCO1)[C@H]1CC[C@H](N(C)c2c(C#N)c(=O)n(C)c3ccc(C#N)nc23)CC1 [Example 167, trans-8-((-4-((4-fluoro-2-methylphenyl)(((R)-tetrahydrofuran-2-yl)methyl)amino)cyclohexyl) (methyl)amino)-5-methyl-6-oxo-5,6-dihydro-1,5-naphthyridine-2,7-dicarbonitrile] | 0.1 to 1 | 0.01 to 0.1
10 | Cn1c(=O)c(C#N)c(N(C)[C@H]2CC[C@@H](N(CC3CC3)c3ccc(F)c(F)c3)CC2)c2nc(C#N)ccc21 [Example 60, cis-8-((4-((cyclopropylmethyl)(3,4-difluorophenyl)amino)cyclohexyl)(methyl)amino)-5-methyl-6-oxo-5,6-dihydro-1,5-naphthyridine-2,7-dicarbonitrile] | 0.1 to 1 | 0.01 to 0.1
11 | COc1cccc(N(CC2CC2)[C@H]2CC[C@H](N(C)c3c(C#N)c(=O)n(C)c4ccc(C#N)nc34)CC2)c1 [Example 29, trans-8-((4-((cyclopropylmethyl)(3-methoxyphenyl)amino)cyclohexyl)(methyl)amino)-5-methyl-6-oxo-5,6-dihydro-1,5-naphthyridine-2,7-dicarbonitrile] | 0.1 to 1 | ≥ 1
12 | Cc1nc(F)ccc1N(CC1CCC1)[C@H]1CC[C@H](N(C)c2c(C#N)c(=O)n(C)c3ccc(C#N)nc23)CC1 [Example 131, trans-8-((-4-((cyclobutylmethyl)(6-fluoro-2-methylpyridin-3-yl)amino)cyclohexyl)(methyl)amino)-5-methyl-6-oxo-5,6-dihydro-1,5-naphthyridine-2,7-dicarbonitrile] | 0.1 to 1 | 0.1 to 1
13 | COc1cc(F)ccc1N(C1CC1)[C@H]1CC[C@@H](N(C)c2cc(=O)n(C)c3ccc(C#N)nc23)CC1 [Example 3W, cis-8-[[4-(N-Cyclopropyl-4-fluoro-2-methoxy-anilino)cyclohexyl]-methyl-amino]-5-methyl-6-oxo-1,5-naphthyridine-2-carbonitrile] | 0.1 to 1 | 0.1 to 1
14 | Cn1c(=O)c(C#N)c(N(C)[C@H]2CC[C@H](N(CC3CC3)c3cccnc3)CC2)c2nc(C#N)ccc21 [Example 103, trans-8-((4-((cyclopropylmethyl)(pyridin-3-yl)amino)cyclohexyl)(methyl)amino)-5-methyl-6-oxo-5,6-dihydro-1,5-naphthyridine-2,7-dicarbonitrile] | ≥ 1 | ≥ 1

The next lines start with the values.

Row | IC50 (DGKα) [µM] | IC50 (DGKζ) [µM] | SMILES
15 | 0.1 to 1 | 0.1 to 1 | CN1C(=O)COc2ccc(N(CC3COCCO3)[C@H]3CC[C@@H](N(C)c4c(C#N)c(=O)n(C)c5ccc(C#N)nc45)CC3)cc21 (stereo partly drawn) [Example 187, cis-8-((4-(((1,4-dioxan-2-yl)methyl)(4-methyl-3-oxo-3,4-dihydro-2H-benzo[b][1,4]oxazin-6-yl)amino)cyclohexyl)(methyl)amino)-5-methyl-6-oxo-5,6-dihydro-1,5-naphthyridine-2,7-dicarbonitrile]
16 | 0.1 to 1 | 0.1 to 1 | Cc1cc(F)ccc1N(CC1COCCN1C)[C@H]1CC[C@H](N(C)c2c(C#N)c(=O)n(C)c3ccc(C#N)nc23)CC1 (stereo partly drawn) [Example 185, trans-8-((-4-((4-fluoro-2-methylphenyl)((4-methylmorpholin-3-yl)methyl)amino)cyclohexyl) (methyl)amino)-5-methyl-6-oxo-5,6-dihydro-1,5-naphthyridine-2,7-dicarbonitrile]
17 | 0.01 to 0.1 | ≥ 1 | COc1cc(F)ccc1N(C)[C@H]1CC[C@H](N(C)c2c(C#N)c(=O)n(C)c3ccc(Cl)nc23)CC1 [Example 40, trans-6-chloro-4-((4-((4-fluoro-2-methoxyphenyl) (methyl)amino)cyclohexyl)(methyl)amino)-1-methyl-2-oxo-1,2-dihydro-1,5-naphthyridine-3-carbonitrile]
18 | < 0.01 | 0.1 to 1 | Cn1c(=O)c(C#N)c(N(C)[C@H]2CC[C@@H](N(c3ccc(F)cc3)C3CC3)CC2)c2nc(Cl)ccc21 [Example 51, cis-6-chloro-4-((4-(cyclopropyl(4-fluorophenyl)amino)cyclohexyl)(methyl)amino)-1-methyl-2-oxo-1,2-dihydro-1,5-naphthyridine-3-carbonitrile]
19 | 0.1 to 1 | 0.1 to 1 | COc1cc(N(CC2CC2)[C@H]2CC[C@@H](N(C)c3c(C#N)c(=O)n(C)c4ccc(C#N)nc34)CC2)ccc1F [Example 33, cis-8-((4-((cyclopropylmethyl)(4-fluoro-3-methoxyphenyl)amino)cyclohexyl)(methyl)amino)-5-methyl-6-oxo-5,6-dihydro-1,5-naphthyridine-2,7-dicarbonitrile]
20 | 0.1 to 1 | 0.1 to 1 | Cn1c(=O)c(C#N)c(N(C)[C@H]2CC[C@H](N(CC3CC3)c3ccc(F)cc3)CC2)c2nc(C#N)ccc21 [Example 54, trans-8-((4-((cyclopropylmethyl)(4-fluorophenyl)amino)cyclohexyl)(methyl)amino)-5-methyl-6-oxo-5,6-dihydro-1,5-naphthyridine-2,7-dicarbonitrile]
21 | < 0.01 | 0.01 to 0.1 | Cn1c(=O)cc(N(C)[C@H]2CC[C@@H](N(CC3CCC3)c3cc4c(cc3F)OCO4)CC2)c2nc(C#N)ccc21 [Example 161, cis-8-((-4-((cyclobutylmethyl)(6-fluorobenzo[d][1,3]dioxol-5-yl)amino)cyclohexyl)(methyl)amino)-5-methyl-6-oxo-5,6-dihydro-1,5-naphthyridine-2-carbonitrile]
22 | 0.01 to 0.1 | 0.1 to 1 | Cn1c(=O)cc(N(C)[C@H]2CC[C@@H](N(CC3CC3)c3ccc(F)c(OC(F)F)c3)CC2)c2nc(C#N)ccc21 [Example 84]
23 | 0.01 to 0.1 | ≥ 1 | COc1cccc(N(CC2CC2)[C@H]2CC[C@H](N(C)c3c(C#N)c(=O)n(C)c4ccc(Cl)nc34)CC2)c1 [Example 21, trans-6-chloro-4-((4-((cyclopropylmethyl)(3-methoxyphenyl)amino)cyclohexyl)(methyl)amino)-1-methyl-2-oxo-1,2-dihydro-1,5-naphthyridine-3-carbonitrile]
24 | < 0.01 | 0.01 to 0.1 | Cn1c(=O)c(C#N)c(N(C)[C@H]2CC[C@@H](N(CC3COCCO3)c3ccc(F)cc3)CC2)c2nc(C#N)ccc21 (stereo partly drawn) [Example 141, cis-8-((-4-(((1,4-dioxan-2-yl)methyl)(4-fluorophenyl)amino)cyclohexyl)(methyl)amino)-5-methyl-6-oxo-5,6-dihydro-1,5-naphthyridine-2,7-dicarbonitrile]
25 | < 0.01 | 0.01 to 0.1 | Cc1cc(N(CC2CCC2)[C@H]2CC[C@@H](N(C)c3c(C#N)c(=O)n(C)c4ccc(C#N)nc34)CC2)ccc1F [Example 91]
